Laboratory results: paper PMC6202471 (CPT: Pharmacometrics & Systems Pharmacology, 2018)
Like-named read-outs stand apart in the source and are kept apart here.

Columns and labels:
[1] = cited from earlier work; for AUC, NCA results: trapezoidal rule with extrapolation to infinity
[2] = cited from earlier work; for f u,GW, unbound drug fraction in the gut wall: fixed to 1
[3] = Semimechanistic population pharmacokinetic model; conditions: for CLINT,H, intrinsic hepatic clearance, SIR median: SIR 20,000 samples, 2,000 resamples; for CLINT,H, intrinsic hepatic clearance, SIR median / CLINT,GW, intrinsic gut wall clearance, SIR median / Q PER1, central to first peripheral compartment clearance, SIR median / V C, volume of central compartment, SIR median / V PER1, volume of first peripheral compartment, SIR median / V C, volume of central compartment, NONMEM mean θ estimate / V PER1, volume of first peripheral compartment, NONMEM mean θ estimate: norketamine values apparent; for CLINT,GW, intrinsic gut wall clearance, NONMEM mean θ estimate / CLINT,H, intrinsic hepatic clearance, NONMEM mean θ estimate: norketamine values apparent (F met set to 1)
CYP2B6 [4] = biological target: T1, CYP2B6 (Homo sapiens, UniProt P20813); conditions: after administration of ticlopidine
T1 sequence (P20813 1-491): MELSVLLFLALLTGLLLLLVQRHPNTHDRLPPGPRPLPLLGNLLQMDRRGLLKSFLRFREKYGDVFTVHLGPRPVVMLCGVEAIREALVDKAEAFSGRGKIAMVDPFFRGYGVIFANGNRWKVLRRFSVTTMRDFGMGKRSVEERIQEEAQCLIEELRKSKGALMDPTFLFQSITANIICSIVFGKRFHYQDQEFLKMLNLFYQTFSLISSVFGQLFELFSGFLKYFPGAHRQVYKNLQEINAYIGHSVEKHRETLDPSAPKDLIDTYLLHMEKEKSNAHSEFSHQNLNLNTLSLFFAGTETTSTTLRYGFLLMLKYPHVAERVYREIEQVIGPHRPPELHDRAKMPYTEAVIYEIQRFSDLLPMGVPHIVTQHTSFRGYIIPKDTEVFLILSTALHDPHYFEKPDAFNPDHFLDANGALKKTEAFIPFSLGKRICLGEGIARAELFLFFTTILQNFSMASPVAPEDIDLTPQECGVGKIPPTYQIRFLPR

[5] = cited from earlier work; for K a,TIC, absorption rate constant, fixed to a published value: FIXED in the model
CYP2B6 [6] = biological target: T1, CYP2B6; conditions: in vitro study; cited from earlier work
[7] = S-ketamine p.o. ticlopidine-phase

Compound | C max, NCA results ([1]; S-ketamine i.v. placebo-phase) | C max, NCA results ([1]; S-ketamine p.o. placebo-phase) | AUC, NCA results ([1]; S-ketamine p.o. placebo-phase) | C max, NCA results [1, 7] | AUC, NCA results [1, 7] | f u,GW, unbound drug fraction in the gut wall [2] | CLINT,H, intrinsic hepatic clearance, SIR median [3] | CLINT,GW, intrinsic gut wall clearance, SIR median ([3]; SIR) | Q PER1, central to first peripheral compartment clearance, SIR median ([3]; SIR) | V C, volume of central compartment, SIR median ([3]; SIR) | V PER1, volume of first peripheral compartment, SIR median ([3]; SIR) | Interindividual variability on CLINT,H, NONMEM estimate ([3]; exponential IIV model) | Interindividual variability on CLINT,H, SIR median ([3]; exponential IIV model, SIR) | V C, volume of central compartment, NONMEM mean θ estimate ([3]; final model) | V PER1, volume of first peripheral compartment, NONMEM mean θ estimate ([3]; final model) | CLINT,GW, intrinsic gut wall clearance, NONMEM mean θ estimate ([3]; final model) | CLINT,H, intrinsic hepatic clearance, NONMEM mean θ estimate ([3]; final model) | further results
CCC(C)n1ncn(-c2ccc(N3CCN(c4ccc(OCC5COC(Cn6cncn6)(c6ccc(Cl)cc6Cl)O5)cc4)CC3)cc2)c1=O (stereo not drawn) [Itraconazole] | – | – | – | – | – | – | – | – | – | – | – | – | – | – | – | – | – | Effect on plasma concentrations of orally administered S-ketamine ([1]; CYP3A inhibitor pretreatment, healthy volunteers): no significant effect
NC1(c2ccccc2Cl)CCCCC1=O (stereo not drawn) [Norketamine, norketamine] | 14 ng/mL | 61 ng/mL | 292 ng·h/mL | 46 ng/mL | 310 ng·h/mL | 1 | 73.4 L/h | 46.5 L/h | 20.1 L/h | 88 L | 88.8 L | 0.10 | 0.10 | 88.4 L | 88.9 L | 44.4 L/h | 73.5 L/h | f u,NK, unbound drug fraction in the blood ([2]; norketamine): 0.50
CN[C@]1(c2ccccc2Cl)CCCCC1=O [S‐ketamine] | 32 ng/mL | 9.9 ng/mL | 21 ng·h/mL | 17 ng/mL | 54 ng·h/mL | 1 | 304 L/h | 1.22 L/h | 288 L/h | 14.4 L | 102 L | 0.25 | 0.26 | 14.4 L | 102 L | 1.19 L/h | 301 L/h | f u,SK, unbound drug fraction in the blood ([2]; S-ketamine): 0.70; Intrinsic hepatic clearance of S-ketamine (CYP2B6 [4]): 113 L/h; Total hepatic clearance of S-ketamine (CYP2B6 [4]; well-stirred model): 60 L/h; K a, absorption rate constant, SIR median ([3]; SIR): 1.78 h⁻¹; Q PER2, central to second peripheral compartment clearance, SIR median ([3]; SIR): 22.3 L/h; V PER2, volume of second peripheral compartment, SIR median ([3]; SIR): 180 L; Interindividual variability on CLINT,GW, NONMEM estimate ([3]; exponential IIV model): 2.1; Interindividual variability on K a, NONMEM estimate ([3]; exponential IIV model): 0.42; Interindividual variability on V PER1, NONMEM estimate ([3]; exponential IIV model): 0.045; Interindividual variability on CLINT,GW, SIR median ([3]; exponential IIV model, SIR): 2.0; Interindividual variability on K a, SIR median ([3]; exponential IIV model, SIR): 0.44; Interindividual variability on V PER1, SIR median ([3]; exponential IIV model, SIR): 0.046; K a, absorption rate constant, NONMEM mean θ estimate ([3]; final model): 1.76 h⁻¹; V PER2, volume of second peripheral compartment, NONMEM mean θ estimate ([3]; final model): 180 L; Total hepatic clearance of S-ketamine ([3]; placebo phase, well-stirred model): 71 L/h; Share of S-ketamine metabolized to norketamine in vivo [5]: ~ 80%; F met, true value for S-ketamine to norketamine metabolism ([5]; humans, set to 1 in the model): b Should be considered as apparent rather than absolute values, as F met was set to 1 but true value of F met = 0.80 in humans for S‐ketamine to norketamine metabolism.
Clc1ccccc1CN1CCc2sccc2C1 [Ticlopidine, ticlopidine] | – | – | – | – | – | 1 | – | – | – | 50.8 L | 208.7 L | – | – | 50.3 L | 191 L | – | – | K a,TIC, absorption rate constant, fixed to a published value [5]: 3.3 (FIXED) /h; K a,TIC, absorption rate constant, fixed to a published value ([5]; listed as ticlopidine): 3.3 h⁻¹; Ticlopidine half-life after multiple dosing [5]: increased
CNC1(c2ccccc2Cl)CCCCC1=O (stereo not drawn) [ketamine] | – | – | – | – | – | – | – | – | – | – | – | – | – | – | – | – | – | Fraction of ketamine metabolized by hepatic CYP2B6 (CYP2B6 [6]): around 60%; Bioavailability after oral administration ([5]; extensive first-pass metabolism): ~ 17%
